Experimental data from US20200215099A1, “NON-ANTICOAGULANT SULFATED OR SULFONATED POLYSACCHARIDES” (Baxalta Incorporated, priority 2012, published 2020).

Tests used:
[1] = test system: FVIII-inhibited plasma; assay: Thrombin generation assay (CAT) in FVIII-inhibited plasma; type: biochemical, human
Description: The procoagulant activity of the sulfated polysaccharides was assessed by the Thrombin Generation Assay (TGA). The influence of each sulfated polysaccharide on thrombin generation was measured in duplicate via CAT in a Fluoroskan Ascent® reader (Thermo Labsystems, Helsinki, Finland; filters 390 nm excitation and 460 nm emission) following the slow cleavage of the fluorogenic substrate Z-Gly-GIy-Arg-AMC (Hemker H C. Pathophysiol Haemost Thromb (2003) 33(4):15). To each well of a 96 well microplate (Immulon 2HB, clear U-bottom; Thermo Electron) 80 μL of pre-warmed (37° C.) goat anti FVIII antibody treated human normal plasma pool was added. For triggering thrombin generation by tissue factor, 104 of PPP reagent containing a certain amount of recombinant human tissue factor (rTF) and phospholipid vesicles composed of phosphatidylserine, phosphatidylcholine and phosphatidylethanolamine (final concentration of 4 μM) (Thrombinoscope BV, Maastricht, The Netherlands) was added. For studying the procoagulant activity of sulfated polymers a final TF concentration of 1 pM was used to provide FVIII and TFPI sensitivity of the test system. Just prior to putting the plate into the pre-warmed (37° C.) reader, 10 µL of test or reference sample or calibrator compound was added. Thrombin generation was started by dispensing 204 of FluCa reagent (Thrombinoscope BV, Maastricht, The Netherlands) containing fluorogenic substrate and Hepes buffered CaCl2 (100 mM) into each well and fluorescence intensity was recorded at 37° C.
The parameters of the resulting thrombin generation curves were calculated using the Thrombinoscope™ software (Thrombinoscope BV, Maastricht, The Netherlands) and thrombin calibrator to correct for inner filter and substrate consumption effects (Hemker H C, Pathophysiol Haemost Thromb (2003) 33(4):15). With the thrombin calibrator as a reference, the molar concentration of thrombin in the test wells was calculated by the software. The thrombin amounts at the peak and peak times of each thrombin generation curve (peak thrombin, nM) were plotted against sulfated polysaccharide concentrations resulting in the procoagulant profile of these compounds. The thrombin generation assay results are illustrated in the figures appended hereto. From these plots half maximal effective concentrations (EC50) values are determined using a sigmoidal curve fit. The EC50 represents the concentration at which the half maximal thrombin peak is reached.

[2] = target: T1, full-length TFPI (Homo sapiens, UniProt P10646); assay: Dilute prothrombin time assay with added TFPI (TFPI-dPT); type: biochemical; conditions: normal human plasma
T1 construct: 0.5 μg/mL full-length TFPI (aa 1-276, constitutively produced by SKHep1); made in house; host or cells: SKHep1
T1 sequence (P10646 29-304): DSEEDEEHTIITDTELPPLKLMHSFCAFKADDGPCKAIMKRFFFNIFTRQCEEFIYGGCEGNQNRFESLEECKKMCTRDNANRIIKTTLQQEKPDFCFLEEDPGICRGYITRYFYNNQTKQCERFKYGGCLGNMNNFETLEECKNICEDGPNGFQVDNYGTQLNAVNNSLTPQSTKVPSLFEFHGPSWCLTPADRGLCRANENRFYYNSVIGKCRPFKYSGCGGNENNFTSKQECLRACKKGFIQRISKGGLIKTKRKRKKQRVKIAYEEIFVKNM
Description: A dilute prothrombin time assay with added TFPI (TFPI-dPT) was used to evaluate the TFPI-inhibiting effect of the different NASPs. Pooled normal human plasma (George King Biomedical, Overland Park, Kans.) was pre-incubated with 0.5 μg/mL full-length TFPI (aa 1-276, constitutively produced by SKHep1) and the respective NASP (0-5 μg/mL) for 15 min at RT. TF reagent TriniClot PT Excel S (Trinity Biotech, Wicklow, Ireland), diluted in Hepes-buffered saline 1:200 with 0.5% BSA was added to the plasma samples on an ACL Pro Elite hemostasis analyzer (Instrumentation Laboratory, Bedford, Mass.). Clotting was initiated with 25 mM CaCl2). The volume ratio of plasma:TF:CaCl2 was 1:1:1.
For data analysis, TFPI-dPT is plotted against the log concentration. Half maximal effective concentrations (EC50) values are determined using a sigmoidal curve fit.

EC50 ([1]; half maximal thrombin peak, 1 pM hTF, 4 μM PL): 0.07 µg/mL
Substance: sulfated 6-carboxy-icodextrin
procoagulant activity (in words) [1]: good procoagulant activity in CAT assays at very low concentrations | procoagulant at (concentration) ([1]; 37° C., 1 pM hTF, 4 μM PL): about 0.01 μg/mL | reversal of the effect of rec. FL-TFPI (in words) [2]: reverses the anticoagulant effect of exogenous full-length TFPI
